Test results from US10487092B2, “Pyrazolopyridinamines as MKNK1 and MKNK2 inhibitors” (BAYER PHARMA AKTIENGESELLSCHAFT, priority 2014, dated 2019).
“Also recorded” adds a separate entry of the source.

Tests used:
[1] = target: human full-length MKNK1 (Homo sapiens (Human), UniProt Q9BUB5, T344D); assay: MKNK1 kinase high ATP assay (TR-FRET); type: biochemical; conditions: high ATP (2 mM), 15 min preincubation with enzyme; read-out: MKNK1 IC50
In short: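 GST-tagged full-length MKNK1 (aa 1–424, T344D; insect-cell expressed) preincubated 15 min with compound, then reacted 30 min at 22 °C with 2 mM ATP and 0.06 μM biotinylated peptide (final) in HEPES pH 7.5 buffer. Phosphopeptide detected by TR-FRET 665/620 ratio, normalized to no-inhibitor and no-enzyme controls.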

[2] = system: secretion of TNF-α in human PBMCs; assay: In vitro IL-1β-induced cytokine (TNF-α) secretion of human PBMCs; type: cell-based; conditions: for IC50: PBMC, human PBMCs stimulated with 20 ng/ml IL-1β for 24 hours
Description: In Vitro IL-1β (Interleukin-1 beta, IL-1b)-Induced Cytokine Secretion of Human PBMCs (Peripheral Blood Mononuclear Cells)
The effect of the chemical compounds on the induced cytokine secretion of human PBMCs has been investigated. Here, the cytokine secretion has been induced by IL-1β which binding to its receptors leads to the activation of the MKNK signaling pathway.
(§1) Human PBMCs have been isolated from anti-coagulated human whole blood donated from healthy volunteers by pre-filling Leucosep tubes with ficoll-paque (15 ml, Biochrom, order ID: L6115) and adding 20 ml whole blood. After centrifugation of the blood at 800 g for 15 min at room temperature (RT) plasma including thrombocytes has been discarded. PBMCs were transferred to a new falcon tube, washed with PBS (phosphate-buffered saline) at 250 g for 10 min at RT and resuspended in complete medium [RPMI 1640, without L-glutamine (PAA, order ID: E15-039), 10% FCS; 50 U/ml Penicillin, 50 μg/ml Streptomycin (PAA, order ID: P11-010) and 1% L-glutamine (Sigma, order ID. G7513)]. The assay was performed in a 96-well plate at a cell density of 2.5×10^5 cells/well as triplicates. The compounds were serially diluted in DMSO and added to the PBMCs at a range of 3×10^−9 M to 1×10^−5M with a final concentration of 0.4% DMSO, respectively. Treatment of PBMCs with 0.4% DMSO was used as control. After 30 min of incubation, PBMCs were stimulated with 20 ng/ml IL-1β (R&D, order ID: 201-LB CF) for 24 hours. Cell viability was measured using the CellTiter-Glo Luminescent Assay (Promega, order ID: G7571) following the manufacturers protocol. The amount of secreted TNF-α (tumor necrosis factor-alpha) in the supernatant was determined using the Human Prolnflammatory 9-Plex (MSD, order ID: K15007B) according to manufacturer's instruction. The inhibitory activity was determined as the relation to the control in percent. IC50 values were calculated using the 4-parameter logistic model.

[3] = system: human peripheral blood mononuclear cells; assay: Cell viability of human PBMCs (CellTiter-Glo Luminescent Assay); type: cell-based; conditions: IL-1β stimulated, 24 hours
Procedure: as §1, with “The compounds were serially diluted in DMSO and added to the PBMCs at a range of 3×10^−9 M to 1×10^−5M with a final concentration of 0.4% DMSO, respectively. Treatment of PBMCs with 0.4% DMSO was used as control. After 30 min of incubation, PBMCs were stimulated with 20 ng/ml IL-1β (R&D, order ID: 201-LB CF) for 24 hours.” left out

Sequence of human full-length MKNK1 (Q9BUB5 other isoform, or with tags, fused parts or gaps T344D): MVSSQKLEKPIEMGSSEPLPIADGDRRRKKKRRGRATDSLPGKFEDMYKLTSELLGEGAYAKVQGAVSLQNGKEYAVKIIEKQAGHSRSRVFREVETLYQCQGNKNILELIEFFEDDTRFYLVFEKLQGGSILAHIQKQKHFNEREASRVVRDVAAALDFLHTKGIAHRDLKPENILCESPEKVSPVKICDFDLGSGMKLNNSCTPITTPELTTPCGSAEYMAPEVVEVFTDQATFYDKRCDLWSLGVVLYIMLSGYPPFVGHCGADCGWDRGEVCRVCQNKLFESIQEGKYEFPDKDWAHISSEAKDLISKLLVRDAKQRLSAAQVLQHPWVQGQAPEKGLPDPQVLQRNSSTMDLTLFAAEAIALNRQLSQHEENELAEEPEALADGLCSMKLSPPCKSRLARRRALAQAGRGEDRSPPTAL

Question: With `CN(C)[C@H]1CCN(C(=O)[C@H]2CCc3c(sc4ncnc(Nc5ccn6nccc6c5)c34)C2)C1` [Example 41, [(3S)-3-(Dimethylamino)pyrrolidin-1-yl][(7S)-4-(pyrazolo[1,5-a]pyridin-5-ylamino)-5,6,7,8-tetrahydro[1]benzothieno[2,3-d]pyrimidin-7-yl]methanone] as the molecule, how does the IC50 [1] read?
Answer: The IC50 was 11 nM.

Question: And the IC50 [2]?
Answer: The IC50 was 10 to 100 nM.

Question: And the “inhibition of the secretion of TNF-α” value ([2]; human PBMCs stimulated with IL-1β)?
Answer: Its value is “inhibition of the secretion of TNF-α; also recorded: inhibits the secretion of TNF-α in a dose dependent manner”.

Question: What about the “effect on cell viability” value [3] of the same molecule?
Answer: The value was “no effect”.

Question: For `COc1cn2nccc2cc1Nc1ncnc2sc3c(c12)CC[C@H](C(=O)N1CC(N(C)C)C1)C3` [Example 102, [3-(Dimethylamino)azetidin-1-yl](7S)-4-[(6-methoxypyrazolo[1,5-a]pyridin-5-yl)amino]-5,6,7,8-tetrahydro[1]benzothieno[2,3-d]pyrimidin-7-ylmethanone], which IC50 [1] is on record?
Answer: Its IC50 is 2 nM.

Question: And the IC50 [2]?
Answer: The IC50 was 10 to 100 nM.

Question: With `COc1cn2nccc2cc1Nc1ncnc2sc3c(c12)CC[C@H](C(=O)N(C)CCO)C3` [Example 103, (7S)—N-(2-Hydroxyethyl)-4-[(6-methoxypyrazolo [1,5-a]pyridin-5-yl)amino]-N-methyl-5,6,7,8-tetrahydro[1]benzothieno[2,3-d]pyrimidine-7-carboxamide] as the molecule, how does the IC50 [1] read?
Answer: The IC50 was 3 nM.

Question: And the IC50 [2]?
Answer: Its IC50 is 1 to 10 nM.

Question: How did the IC50 [1] turn out when `COCCN(C)C(=O)[C@H]1CCc2c(sc3ncnc(Nc4cc5ccnn5cc4OC)c23)C1` [Example 104, (7S)—N-(2-Methoxyethyl)-4-[(6-methoxypyrazolo[1,5-a]pyridin-5-yl)amino]-N-methyl-5,6,7,8-tetrahydro[1]benzothieno[2,3-d]pyrimidine-7-carboxamide] was run?
Answer: The IC50 was 1 nM.

Question: And the IC50 [2]?
Answer: Its IC50 is 1 to 10 nM.

Question: `COc1cn2nccc2cc1Nc1ncnc2sc3c(c12)CC[C@H](C(=O)N1CC[C@@H](N(C)C)C1)C3` [Example 106, [(3R)-3-(Dimethylamino)pyrrolidin-1-yl](7S)-4-[(6-methoxypyrazolo[1,5-a]pyridin-5-yl)amino]-5,6,7,8-tetrahydro[1]benzothieno[2,3-d]pyrimidin-7-ylmethanone] was tested. Which IC50 [1] did it give?
Answer: Its IC50 is < 1 nM.

Question: What about the IC50 [2] of the same molecule?
Answer: Its IC50 is 1 to 10 nM.

Question: How did the IC50 [1] turn out when `COc1cn2nccc2cc1Nc1ncnc2sc3c(c12)CC[C@H](C(=O)N1CCN(C)CC1)C3` [Example 113, (7S)-4-[(6-Methoxypyrazolo[1,5-a]pyridin-5-yl)amino]-5,6,7,8-tetrahydro[1]benzothieno[2,3-d]pyrimidin-7-yl(4-methylpiperazin-1-yl)methanone] was run?
Answer: The IC50 was 1 nM.

Question: What about the IC50 [2] of the same molecule?
Answer: Its IC50 is 10 to 100 nM.

Question: With `COc1cn2nccc2cc1Nc1ncnc2sc3c(c12)CC[C@H](C(=O)N1CCOCC1)C3` [Example 116, (7S)-4-[(6-Methoxypyrazolo[1,5-a]pyridin-5-yl)amino]-5,6,7,8-tetrahydro[1]benzothieno[2,3-d]pyrimidin-7-yl(morpholin-4-yl)methanone] as the molecule, how does the IC50 [1] read?
Answer: Its IC50 is 1 nM.

Question: And the IC50 [2]?
Answer: Its IC50 is 10 to 100 nM.

Question: Which IC50 [1] does the source give for `COc1cn2nccc2cc1Nc1ncnc2sc3c(c12)CC[C@H](C(=O)N1CCOC[C@@H]1C)C3` [Example 125, (7S)-4-[(6-Methoxypyrazolo[1,5-a]pyridin-5-yl)amino]-5,6,7,8-tetrahydro[1]benzothieno[2,3-d]pyrimidin-7-yl[(3S)-3-methylmorpholin-4-yl]methanone] here?
Answer: Its IC50 is 1 nM.

Question: What about the IC50 [2] of the same molecule?
Answer: Its IC50 is ≥ 100 nM.
